Data as given in ChEMBL document CHEMBL4765332, “A multi-scale systems pharmacology approach uncovers the anti-cancer molecular mechanism of Ixabepilone” (Eur J Med Chem, 2020).
Calls of active or inactive are those of the source. The rule behind the calls is not given here.

How the values were obtained:
[1] = tested on: BT-549; test: Induction of apoptosis in human BT-549 cells transfected with Beclin1 siRNA assessed as increase in cleaved PARP level measured after 48 hrs by western blot analysis; format: functional, cell-based
[2] = tested on: BT-549; test: Induction of apoptosis in human BT-549 cells assessed as viable cells incubated for 48 hrs by AnnexinV-FITC and propidium iodide staining based flow cytometry analysis(reference value: 98.6%); format: functional
[3] = tested on: BT-549; test: Induction of apoptosis in human BT-549 cells assessed as early apoptotic cells incubated for 48 hrs by AnnexinV-FITC and propidium iodide staining based flow cytometry analysis(reference value: 0.609%); format: functional
[4] = tested on: BT-549; test: Induction of apoptosis in human BT-549 cells assessed as late apoptotic cells incubated for 48 hrs by AnnexinV-FITC and propidium iodide staining based flow cytometry analysis(reference value: 0.599%); format: functional
[5] = tested on: BT-549; test: Induction of apoptosis in human BT-549 cells assessed as necrotic cells incubated for 48 hrs by AnnexinV-FITC and propidium iodide staining based flow cytometry analysis(reference value: 0.145%); format: functional
[6] = molecular target: T1, Apoptosis regulator Bcl-2 (Homo sapiens, UniProt P10415); test: Induction of Bcl-2 phosphorylation-mediated protein degradation in human HepG2 cells assessed as decrease in Bcl-2 expression at 0.4 to 6.4 uM measured after 48 hrs by western blot analysis; format: cell-based; conditions: dose 0.4-6.4 µM
[7] = molecular target: T1, Apoptosis regulator Bcl-2; test: Induction of Bcl-2 phosphorylation-mediated protein degradation in human U251 cells assessed as decrease in Bcl-2 expression at 0.4 to 6.4 uM measured after 48 hrs by western blot analysis; format: cell-based; conditions: U-251, dose 0.4-6.4 µM
[8] = molecular target: T1, Apoptosis regulator Bcl-2; test: Induction of Bcl-2 phosphorylation-mediated protein degradation in human HepG2 cells assessed as decrease in Bcl-2 expression at 0.4 uM measured after 12 to 48 hrs by western blot analysis; format: cell-based; conditions: time 12-48 hrs
[9] = molecular target: T1, Apoptosis regulator Bcl-2; test: Induction of Bcl-2 phosphorylation-mediated protein degradation in human U251 cells assessed as decrease in Bcl-2 expression at 0.4 uM measured after 12 to 48 hrs by western blot analysis; format: cell-based; conditions: U-251, time 12-48 hrs
[10] = tested on: HepG2; test: Cytotoxicity against human HepG2 cells at 0.1 to 1.6 uM measured after 48 hrs in presence of 20 uM autophagy inhibitor, chloroquine by CCK8 assay; format: functional, cell-based; conditions: dose 0.1-1.6 µM
[11] = tested on: U-251; test: Cytotoxicity against human U251 cells at 0.1 to 1.6 uM measured after 48 hrs in presence of 20 uM autophagy inhibitor, chloroquine by CCK8 assay; format: functional, cell-based; conditions: dose 0.1-1.6 µM
[12] = tested on: MDA-MB-231; test: Antitumor activity against human MDA-MB-231 cells xenografted in BALB/c mouse assessed as tumor growth inhibition at 3 mg/kg, ip administered every other day measured every 3 days by vernier caliper analysis; format: functional, organism-based
[13] = molecular target: T1, Apoptosis regulator Bcl-2; test: Induction of Bcl-2 phosphorylation-mediated protein degradation in human MDA-MB-231 cells assessed as decrease in Bcl-2 expression at 0.1 to 0.2 uM pretreated with proteasome inhibitor, MG132 for 2 hrs followed by incubation with compound for 48 hrs by western blot analysis; format: cell-based; conditions: dose 0.1-0.2 µM
[14] = molecular target: T1, Apoptosis regulator Bcl-2; test: Induction of Bcl-2 phosphorylation-mediated protein degradation in human BT549 cells assessed as decrease in Bcl-2 expression at 0.1 to 0.2 uM pretreated with proteasome inhibitor, MG132 for 2 hrs followed by incubation with compound for 48 hrs by western blot analysis; format: cell-based; conditions: BT-549, dose 0.1-0.2 µM
[15] = molecular target: T1, Apoptosis regulator Bcl-2; test: Induction of Bcl-2 phosphorylation-mediated protein degradation in human MCF7 cells assessed as decrease in Bcl-2 expression at 0.1 to 0.2 uM pretreated with proteasome inhibitor, MG132 for 2 hrs followed by incubation with compound for 48 hrs by western blot analysis; format: cell-based; conditions: dose 0.1-0.2 µM
[16] = molecular target: T1, Apoptosis regulator Bcl-2; test: Upregulation of Bcl-2 phosphorylation at Ser70 residue in human MDA-MB-231 cells at 0.05 to 0.4 microM incubated for 48 hrs by western blot analysis; format: cell-based; conditions: dose 0.05-0.4 µM
[17] = molecular target: T1, Apoptosis regulator Bcl-2; test: Upregulation of Bcl-2 phosphorylation at Ser70 residue in human BT549 cells at 0.05 to 0.4 microM incubated for 48 hrs by western blot analysis; format: cell-based; conditions: BT-549, dose 0.05-0.4 µM
[18] = molecular target: T1, Apoptosis regulator Bcl-2; test: Upregulation of Bcl-2 phosphorylation at Ser70 residue in human MCF7 cells at 0.05 to 0.4 microM incubated for 48 hrs by western blot analysis; format: cell-based; conditions: dose 0.05-0.4 µM
[19] = molecular target: T1, Apoptosis regulator Bcl-2; test: Upregulation of Bcl-2 phosphorylation at Ser70 residue in human MDA-MB-231 cells at 0.1 microM incubated for 12 to 36 hrs by western blot analysis; format: cell-based; conditions: time 12-36 hrs
[20] = molecular target: T1, Apoptosis regulator Bcl-2; test: Upregulation of Bcl-2 phosphorylation at Ser70 residue in human BT549 cells at 0.1 microM incubated for 12 to 36 hrs by western blot analysis; format: cell-based; conditions: BT-549, time 12-36 hrs
[21] = molecular target: T1, Apoptosis regulator Bcl-2; test: Upregulation of Bcl-2 phosphorylation at Ser70 residue in human MCF7 cells at 0.1 microM incubated for 12 to 36 hrs by western blot analysis; format: cell-based; conditions: time 12-36 hrs
[22] = tested on: MDA-MB-231; test: Effect on Beclin1 expression in human MDA-MB-231 cells at 0.2 uM measured after 48 hrs by western blot analysis; format: functional, cell-based
[23] = tested on: BT-549; test: Induction of apoptosis in human BT-549 cells assessed as viable cells incubated for 48 hrs in presence of 20 uM autophagy inhibitor, CQ by AnnexinV-FITC and propidium iodide staining based flow cytometry analysis(reference value: 94.6%); format: functional
[24] = tested on: BT-549; test: Induction of apoptosis in human BT-549 cells assessed as early apoptotic cells incubated for 48 hrs in presence of 20 uM autophagy inhibitor, CQ by AnnexinV-FITC and propidium iodide staining based flow cytometry analysis(reference value: 1.94%); format: functional
[25] = tested on: BT-549; test: Induction of apoptosis in human BT-549 cells assessed as late apoptotic cells incubated for 48 hrs in presence of 20 uM autophagy inhibitor, CQ by AnnexinV-FITC and propidium iodide staining based flow cytometry analysis(reference value: 2.64%); format: functional
[26] = tested on: BT-549; test: Induction of apoptosis in human BT-549 cells assessed as necrotic cells incubated for 48 hrs in presence of 20 uM autophagy inhibitor, CQ by AnnexinV-FITC and propidium iodide staining based flow cytometry analysis(reference value: 0.86%); format: functional
[27] = tested on: MDA-MB-231; test: Antitumor activity against human MDA-MB-231 cells xenografted in BALB/c mouse assessed as tumor growth inhibition at 3 mg/kg, ip administered with compound every other day and with 10 mg/kg, ip CQ every day and measured every 3 days by vernier caliper analysis; format: functional, organism-based
[28] = tested on: Mus musculus; test: Downregulation of Ki67 expression in tumor tissue of BALB/c mouse xenografted with human MDA-MB-231 cells at 3 mg/kg, ip administered with compound every other day and with 10 mg/kg, ip CQ every day by immunohistochemical staining; format: functional, organism-based
[29] = tested on: HepG2; test: Induction of autophagy in human HepG2 cells assessed as increase in LC3-II expression at 0.4 to 6.4 uM measured after 48 hrs by western blot analysis; format: functional, cell-based; conditions: dose 0.4-6.4 µM
[30] = tested on: HepG2; test: Induction of autophagy in human HepG2 cells assessed as increase in LC3-II expression at 0.4 uM measured after 12 to 48 hrs by western blot analysis; format: functional, cell-based; conditions: time 12-48 hrs
[31] = tested on: U-251; test: Induction of autophagy in human U251 cells assessed as increase in LC3-II expression at 0.4 to 6.4 uM measured after 48 hrs by western blot analysis; format: functional, cell-based; conditions: dose 0.4-6.4 µM
[32] = tested on: U-251; test: Induction of autophagy in human U251 cells assessed as increase in LC3-II expression at 0.4 uM measured after 12 to 48 hrs by western blot analysis; format: functional, cell-based; conditions: time 12-48 hrs

T1 sequence (P10415 whole entry): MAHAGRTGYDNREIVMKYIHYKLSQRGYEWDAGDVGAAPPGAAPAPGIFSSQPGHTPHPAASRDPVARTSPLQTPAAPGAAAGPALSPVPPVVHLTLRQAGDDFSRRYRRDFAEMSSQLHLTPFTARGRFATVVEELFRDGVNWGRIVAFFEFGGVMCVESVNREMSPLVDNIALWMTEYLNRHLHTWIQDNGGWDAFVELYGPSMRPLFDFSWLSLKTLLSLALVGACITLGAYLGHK

C/C(=C\c1csc(C)n1)[C@@H]1C[C@@H]2O[C@]2(C)CCC[C@H](C)[C@H](O)[C@@H](C)C(=O)C(C)(C)[C@@H](O)CC(=O)N1 [IXABEPILONE]
Activity [1]: Active | Activity [2]: 86.3% | Activity [3]: 2.17% | Activity [4]: 10% | Activity [5]: 1.47% | Activity [6]: Active | Activity [7]: Active | Activity [8]: Active | Activity [9]: Active | Activity [10]: Active | Activity [11]: Active | Activity [12]: Active | Activity [13]: inactive | Activity [14]: inactive | Activity [15]: inactive | Activity [16]: Active | Activity [17]: Active | Activity [18]: Active | Activity [19]: Active | Activity [20]: Active | Activity [21]: Active | Activity [22]: inactive | Activity [23]: 74.3% | Activity [24]: 4.2% | Activity [25]: 18% | Activity [26]: 3.53% | Activity [27]: Active | inhibition [28]: Active | Activity [29]: Active | Activity [30]: Active | Activity [31]: Active | Activity [32]: Active
